In ChEMBL document CHEMBL1629435, “Novel insights into the use of Glowing LNA as nucleic acid detection probes--influence of labeling density and nucleobases” (Bioorg Med Chem Lett, 2010):

Legend:
Type in all cases: nucleic-acid assay
[1] = system: Nucleic Acid; assay: Binding affinity to CGT AGA GTG DNA sequence assessed as melting temperature by thermal denaturation assay
[2] = system: Nucleic Acid; assay: Binding affinity to CGU AGA GUG RNA sequence assessed as melting temperature by thermal denaturation assay
[3] = system: Nucleic Acid; assay: Binding affinity to CGT AGA GTG DNA sequence assessed as change in melting temperature by thermal denaturation assay
[4] = system: Nucleic Acid; assay: Binding affinity to CGU AGA GUG RNA sequence assessed as change in melting temperature by thermal denaturation assay
[5] = system: Nucleic Acid; assay: Binding affinity to CGT AAA GTG DNA sequence assessed as change in melting temperature by thermal denaturation assay
[6] = system: Nucleic Acid; assay: Binding affinity to CGT ACA GTG DNA sequence assessed as change in melting temperature by thermal denaturation assay
[7] = system: Nucleic Acid; assay: Binding affinity to CGT ATA GTG DNA sequence assessed as change in melting temperature by thermal denaturation assay
[8] = system: Nucleic Acid; assay: Binding affinity to AAA TAT ATA GTG DNA sequence by fluorescence emission spectrum analysis
[9] = system: Nucleic Acid; assay: Binding affinity to AAA UAU AUA GUG C RNA sequence by fluorescence emission spectrum analysis
[10] = system: Nucleic Acid; assay: Binding affinity to CGU AAA GUG RNA sequence assessed as change in melting temperature by thermal denaturation assay
[11] = system: Nucleic Acid; assay: Binding affinity to CGU ACA GUG RNA sequence assessed as change in melting temperature by thermal denaturation assay
[12] = system: Nucleic Acid; assay: Binding affinity to CGU AUA GUG RNA sequence assessed as change in melting temperature by thermal denaturation assay
[13] = system: Nucleic Acid; assay: Binding affinity to AAA TAT ATA GTG C DNA sequence assessed as melting temperature by thermal denaturation assay
[14] = system: Nucleic Acid; assay: Binding affinity to AAA UAU AUA GUG C RNA sequence assessed as melting temperature by thermal denaturation assay
[15] = system: Nucleic Acid; assay: Binding affinity to AAA TAT ATA GTG C DNA sequence assessed as change in melting temperature by thermal denaturation assay
[16] = system: Nucleic Acid; assay: Binding affinity to AAA UAU AUA GUG C RNA sequence assessed as change in melting temperature by thermal denaturation assay

| Compound | Tm [1] [°C] | Tm [2] [°C] | ΔTm [3] [°C] | ΔTm [4] [°C] | ΔTm [5] [°C] | ΔTm [6] [°C] | ΔTm [7] [°C] | fold change (FC) [8] | fold change (FC) [9] | ΔTm [10] [°C] | ΔTm [11] [°C] | ΔTm [12] [°C] | Tm [13] [°C] | Tm [14] [°C] | ΔTm [15] [°C] | ΔTm [16] [°C] |
| --- | --- | --- | --- | --- | --- | --- | --- | --- | --- | --- | --- | --- | --- | --- | --- | --- |
| Cc1cn([C@@H]2O[C@@]3(COP(=O)(O)O[C@H]4[C@@H](O)[C@H](n5cnc6c(=O)[nH]c(N)nc65)O[C@@H]4COP(=O)(O)O)CN(C(=O)c4ccc5ccc6cccc7ccc4c5c67)[C@@H]2[C@@H]3OP(=O)(O)OC[C@H]2O[C@@H](n3cnc4c(N)ncnc43)[C@H](O)[C@@H]2OP(=O)(O)OC[C@H]2O[C@@H](n3cc(C)c(=O)[nH]c3=O)C[C@@H]2OP(=O)(O)OC[C@@]23CN(C(=O)c4ccc5ccc6cccc7ccc4c5c67)[C@@H]([C@H](n4cc(C)c(N)nc4=O)O2)[C@@H]3OP(=O)(O)OC[C@H]2O[C@@H](n3cc(C)c(=O)[nH]c3=O)C[C@@H]2OP(=O)(O)OC[C@H]2O[C@@H](n3ccc(N)nc3=O)[C@H](O)[C@@H]2OP(=O)(O)OC[C@H]2O[C@@H](n3cnc4c(N)ncnc43)[C@H](O)[C@@H]2OP(=O)(O)OC[C@H]2O[C@@H](n3ccc(N)nc3=O)[C@H](O)[C@@H]2O)c(=O)nc1N | 45 | 47 | 5.5 | 5.5 | -27 | -30 | -32.5 | 3.6 | 3.6 | – | – | – | – | – | – | – |
| Cc1cn([C@H]2C[C@H](OP(=O)(O)OC[C@H]3O[C@@H](n4ccc(N)nc4=O)[C@H](O)[C@@H]3OP(=O)(O)OC[C@H]3O[C@@H](n4cnc5c(N)ncnc54)[C@H](O)[C@@H]3OP(=O)(O)OC[C@H]3O[C@@H](n4ccc(N)nc4=O)[C@H](O)[C@@H]3O)[C@@H](COP(=O)(O)O[C@H]3[C@@H](O)[C@H](n4ccc(N)nc4=O)O[C@@H]3COP(=O)(O)O[C@H]3C[C@H](n4cc(C)c(=O)[nH]c4=O)O[C@@H]3COP(=O)(O)O[C@H]3[C@@H](O)[C@H](n4cnc5c(N)ncnc54)O[C@@H]3COP(=O)(O)O[C@H]3[C@@H](O)[C@H](n4ccc(N)nc4=O)O[C@@H]3COP(=O)(O)O[C@H]3[C@@H](O)[C@H](n4cnc5c(=O)[nH]c(N)nc54)O[C@@H]3COP(=O)(O)O)O2)c(=O)[nH]c1=O | 34.5 | 36.5 | – | – | < -24.5 | < -24.5 | -21.5 | – | – | -23.5 | < -26.5 | < -26.5 | – | – | – | – |
| Cc1cn([C@@H]2O[C@@]3(COP(=O)(O)O[C@H]4C[C@H](n5cc(C)c(=O)[nH]c5=O)O[C@@H]4COP(=O)(O)O[C@H]4[C@@H](O)[C@H](n5ccc(N)nc5=O)O[C@@H]4COP(=O)(O)O[C@H]4C[C@H](n5cc(C)c(=O)[nH]c5=O)O[C@@H]4COP(=O)(O)O[C@H]4[C@@H](O)[C@H](n5cnc6c(N)ncnc65)O[C@@H]4COP(=O)(O)O[C@H]4[C@@H](O)[C@H](n5ccc(N)nc5=O)O[C@@H]4COP(=O)(O)O[C@H]4[C@@H](O)[C@H](n5cnc6c(=O)[nH]c(N)nc65)O[C@@H]4COP(=O)(O)O)CN(C(=O)c4ccc5ccc6cccc7ccc4c5c67)[C@@H]2[C@@H]3OP(=O)(O)OC[C@H]2O[C@@H](n3cnc4c(N)ncnc43)[C@H](O)[C@@H]2OP(=O)(O)OC[C@H]2O[C@@H](n3ccc(N)nc3=O)[C@H](O)[C@@H]2O)c(=O)nc1N | 37 | 40 | 2.5 | 3.5 | – | – | – | – | – | – | – | – | – | – | – | – |
| Cc1cn([C@@H]2O[C@@]3(COP(=O)(O)O[C@H]4[C@@H](O)[C@H](n5cnc6c(N)ncnc65)O[C@@H]4COP(=O)(O)O[C@H]4[C@@H]5[C@H](n6cc(C)c(=O)[nH]c6=O)O[C@@]4(COP(=O)(O)O[C@H]4C[C@H](n6cc(C)c(=O)[nH]c6=O)O[C@@H]4COP(=O)(O)O[C@H]4C[C@H](n6cc(C)c(=O)[nH]c6=O)O[C@@H]4COP(=O)(O)O)CN5C(=O)c4ccc5ccc6cccc7ccc4c5c67)CN(C(=O)c4ccc5ccc6cccc7ccc4c5c67)[C@@H]2[C@@H]3OP(=O)(O)OC[C@H]2O[C@@H](n3cnc4c(N)ncnc43)[C@H](O)[C@@H]2OP(=O)(O)OC[C@H]2O[C@@H](n3cc(C)c(=O)[nH]c3=O)C[C@@H]2OP(=O)(O)OC[C@H]2O[C@@H](n3cnc4c(N)ncnc43)[C@H](O)[C@@H]2OP(=O)(O)OC[C@H]2O[C@@H](n3cc(C)c(=O)[nH]c3=O)C[C@@H]2OP(=O)(O)OC[C@H]2O[C@@H](n3ccc(N)nc3=O)[C@H](O)[C@@H]2OP(=O)(O)OC[C@H]2O[C@@H](n3cnc4c(N)ncnc43)[C@H](O)[C@@H]2OP(=O)(O)OC[C@H]2O[C@@H](n3ccc(N)nc3=O)[C@H](O)[C@@H]2OP(=O)(O)OC[C@H]2O[C@@H](n3cnc4c(=O)[nH]c(N)nc43)[C@H](O)[C@@H]2O)c(=O)[nH]c1=O | – | – | – | – | – | – | – | 3.5 | 3.5 | – | – | – | 46.5 | 48 | 6.5 | 8 |
| Cc1cn([C@@H]2O[C@@]3(COP(=O)(O)O[C@H]4[C@@H](O)[C@H](n5cnc6c(=O)[nH]c(N)nc65)O[C@@H]4COP(=O)(O)O)CN(C(=O)c4ccc5ccc6cccc7ccc4c5c67)[C@@H]2[C@@H]3OP(=O)(O)OC[C@H]2O[C@@H](n3cnc4c(N)ncnc43)[C@H](O)[C@@H]2OP(=O)(O)OC[C@H]2O[C@@H](n3cc(C)c(=O)[nH]c3=O)C[C@@H]2OP(=O)(O)OC[C@@]23CN(C(=O)c4ccc5ccc6cccc7ccc4c5c67)[C@@H]([C@H](n4cc(C)c(N)nc4=O)O2)[C@@H]3OP(=O)(O)OC[C@H]2O[C@@H](n3cc(C)c(=O)[nH]c3=O)C[C@@H]2OP(=O)(O)OC[C@@]23CN(C(=O)c4ccc5ccc6cccc7ccc4c5c67)[C@@H]([C@H](n4cc(C)c(N)nc4=O)O2)[C@@H]3OP(=O)(O)OC[C@H]2O[C@@H](n3cnc4c(N)ncnc43)[C@H](O)[C@@H]2OP(=O)(O)OC[C@H]2O[C@@H](n3ccc(N)nc3=O)[C@H](O)[C@@H]2O)c(=O)nc1N | 49.5 | 62 | 5 | 8.5 | -27 | -31 | -31.5 | 3.6 | 3.6 | – | – | – | – | – | – | – |

Other lines, results leading:

| Tm [1] [°C] | Tm [2] [°C] | ΔTm [3] [°C] | ΔTm [4] [°C] | ΔTm [5] [°C] | ΔTm [6] [°C] | ΔTm [7] [°C] | fold change (FC) [8] | fold change (FC) [9] | ΔTm [10] [°C] | ΔTm [11] [°C] | ΔTm [12] [°C] | Tm [13] [°C] | Tm [14] [°C] | ΔTm [15] [°C] | ΔTm [16] [°C] | Compound |
| --- | --- | --- | --- | --- | --- | --- | --- | --- | --- | --- | --- | --- | --- | --- | --- | --- |
| 43 | 52.5 | 4.5 | 8 | -27 | -30 | -30 | 3.6 | 3.6 | – | – | – | – | – | – | – | Cc1cn([C@@H]2O[C@@]3(COP(=O)(O)O[C@H]4C[C@H](n5cc(C)c(=O)[nH]c5=O)O[C@@H]4COP(=O)(O)O[C@H]4[C@@H]5[C@H](n6cc(C)c(N)nc6=O)O[C@@]4(COP(=O)(O)O[C@H]4C[C@H](n6cc(C)c(=O)[nH]c6=O)O[C@@H]4COP(=O)(O)O[C@H]4[C@@H](O)[C@H](n6cnc7c(N)ncnc76)O[C@@H]4COP(=O)(O)O[C@H]4[C@@H](O)[C@H](n6ccc(N)nc6=O)O[C@@H]4COP(=O)(O)O[C@H]4[C@@H](O)[C@H](n6cnc7c(=O)[nH]c(N)nc76)O[C@@H]4COP(=O)(O)O)CN5C(=O)c4ccc5ccc6cccc7ccc4c5c67)CN(C(=O)c4ccc5ccc6cccc7ccc4c5c67)[C@@H]2[C@@H]3OP(=O)(O)OC[C@H]2O[C@@H](n3cnc4c(N)ncnc43)[C@H](O)[C@@H]2OP(=O)(O)OC[C@H]2O[C@@H](n3ccc(N)nc3=O)[C@H](O)[C@@H]2O)c(=O)nc1N |
| – | – | – | – | – | – | – | 3.5 | 3.5 | – | – | – | 45.5 | 46.5 | 6 | 7 | Cc1cn([C@@H]2O[C@@]3(COP(=O)(O)O[C@H]4C[C@H](n5cnc6c(N)ncnc65)O[C@@H]4COP(=O)(O)O[C@H]4C[C@H](n5cnc6c(=O)[nH]c(N)nc65)O[C@@H]4COP(=O)(O)O[C@H]4[C@H]5OC[C@]4(COP(=O)(O)O[C@H]4C[C@H](n6cnc7c(=O)[nH]c(N)nc76)O[C@@H]4CO)O[C@H]5n4cc(C)c(=O)[nH]c4=O)CO[C@@H]2[C@@H]3OP(=O)(O)OC[C@H]2O[C@@H](n3cnc4c(N)ncnc43)C[C@@H]2OP(=O)(O)OC[C@@]23CO[C@@H]([C@H](n4cc(C)c(=O)[nH]c4=O)O2)[C@@H]3OP(=O)(O)OC[C@H]2O[C@@H](n3cnc4c(=O)[nH]c(N)nc43)C[C@@H]2OP(=O)(O)OC[C@H]2O[C@@H](n3ccc(N)nc3=O)C[C@@H]2O)c(=O)[nH]c1=O |
